PMC2982748 (Arteriosclerosis, thrombosis, and vascular biology, 2010)

Molecular target: P2Y12 (Homo sapiens, UniProt Q9H244)
Experiment: β-arrestin recruitment
Format: cell-based

Chain of P2Y12 (Q9H244 whole entry): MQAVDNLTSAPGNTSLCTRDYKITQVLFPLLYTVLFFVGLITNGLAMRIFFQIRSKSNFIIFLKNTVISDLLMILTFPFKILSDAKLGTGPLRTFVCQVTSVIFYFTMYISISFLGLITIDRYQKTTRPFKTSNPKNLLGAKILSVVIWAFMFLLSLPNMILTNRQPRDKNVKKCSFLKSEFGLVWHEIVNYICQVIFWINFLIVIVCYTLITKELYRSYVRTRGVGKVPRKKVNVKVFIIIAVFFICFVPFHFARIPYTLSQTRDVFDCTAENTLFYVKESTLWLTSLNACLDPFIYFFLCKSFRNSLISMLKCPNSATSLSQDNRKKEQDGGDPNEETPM

SMILES | EC50 [nM]
Nc1ncnc2c1ncn2[C@@H]1O[C@H](COP(=O)(O)OP(=O)(O)O)[C@@H](O)[C@H]1O [ADP] | 5000
CCCCC/C=C\C\C=C/C=C/C=C/[C@@H](SC[C@H](N)C(=O)O)[C@@H](O)CCCC(=O)O [LTE4] | 0.013
